This note sets out measurements from PubChem BioAssay AID540365 (The Scripps Research Institute Molecular Screening Center, 2011).

The source made the active and inactive calls. The rule behind the calls is not given here.

In this assay the target is Neuropeptides B/W receptor type 1 (Homo sapiens) (UniProt P48145). Briefly: GPR7 antagonists, late-stage follow-up, cell-based, fluorescence, dose response, set 3 (AID 540365). As to conditions: GPR7-expressing cells, fluorescence antagonist read-out.

As for `COc1ccc(Oc2c(Br)cnn(Cc3cccc4ccccc34)c2=O)cc1`, the IC50 (in general, the concentration that inhibits the measured activity by half) is 132 nM (run 1), 242 nM (run 2) and 240 nM (run 3).

As to `COc1ccc(Oc2c(C#N)cnn(Cc3cccc4ccccc34)c2=O)cc1`, the 50% inhibitory concentration (IC50) runs as follows: (run 1) 1310 nM; (run 2) 1690 nM; (run 3) 2490 nM.

Consider `COc1ccc(Oc2c(Cl)cnn(Cc3c(F)cccc3F)c2=O)cc1`, for which the IC50 was 843 nM (run 1), 726 nM (run 2) and 719 nM (run 3).

Consider `CCCOc1ccc(Oc2c(Cl)cnn(C3c4ccccc4-c4ccccc43)c2=O)cc1`, for which the IC50 is, setting by setting: (run 1) > 20000 nM (inactive); (run 2) > 20000 nM (inactive); (run 3) > 20000 nM (inactive).

Take `COc1ccc(Oc2c(Cl)cnn(C(c3ccccc3)c3ccccc3)c2=O)cc1`: the half-inhibitory concentration (IC50) runs as follows: (run 1) 580 nM; (run 2) 497 nM; (run 3) 481 nM.

As to `COc1ccc(Nc2c(Cl)cnn(Cc3cccc4ccccc34)c2=O)cc1`, the IC50 entry (run 1) was “inactive”. Further, the 50% inhibitory concentration (IC50) is, setting by setting: (run 2) 9470 nM; (run 3) > 20000 nM (inactive).

For `CCOc1ccc(Oc2c(Cl)cnn(C3c4ccccc4-c4ccccc43)c2=O)cc1`, the IC50 is, setting by setting: (run 1) 480 nM; (run 2) 168 nM; (run 3) 207 nM.

For `CCOC(=O)C(c1cccc2ccccc12)n1ncc(Cl)c(Oc2ccc(OC)cc2)c1=O` (centres undefined), the IC50 is 451 nM (run 1), 597 nM (run 2) and 1310 nM (run 3).

On to `COc1ccc(Oc2c(Cl)cnn(Cc3cccc4cnccc34)c2=O)cc1`, for which the IC50 is 3400 nM (run 1), 4100 nM (run 2) and 4930 nM (run 3).

Take `CCCOc1ccc(Oc2c(Cl)cnn(Cc3cccc4ccccc34)c2=O)cc1`: the IC50 (run 1) is 1140 nM, the IC50 (run 2) was 1080 nM and the IC50 (run 3) is 1120 nM.

Consider `CCOc1ccc(Oc2c(S(C)=O)cnn(Cc3cccc4ccccc34)c2=O)cc1` (centres undefined), for which the IC50 reads like this: (run 1) 2220 nM; (run 2) 2130 nM; (run 3) 2090 nM.

`COc1ccc(Oc2c(Cl)cnn(Cc3ccc4ccccc4c3)c2=O)cc1`: the half-maximal inhibitory concentration (IC50) is, setting by setting: (run 1) 1480 nM; (run 2) 1950 nM; (run 3) 2020 nM.

Consider `COc1ccc(Oc2c(Cl)c(C#N)nn(Cc3ccccc3C)c2=O)cc1`, for which the IC50 runs as follows: (run 1) 1090 nM; (run 2) 1270 nM; (run 3) 1190 nM.

In the case of `C=Cc1nn(Cc2ccccc2C)c(=O)c(Oc2ccc(OC)cc2)c1C=C`, the IC50 reads like this: (run 1) 418 nM; (run 2) 808 nM; (run 3) 818 nM.

Regarding `COc1ccc(Sc2c(Cl)cnn(Cc3cccc4ccccc34)c2=O)cc1`, the IC50 was 660 nM (run 1) and 1030 nM (run 2).

`CCOc1ccc(Oc2c(Cl)c(Br)nn(Cc3cccc4ccccc34)c2=O)cc1`: the IC50 runs as follows: (run 1) 177 nM; (run 2) 237 nM.

Regarding `CCOC(=O)C(c1ccccc1)n1ncc(Cl)c(Oc2ccc(OC)cc2)c1=O` (centres undefined), the IC50 is, setting by setting: (run 1) 1320 nM; (run 2) 864 nM; (run 3) 953 nM.
